Test results taken from patent US7041701B2, “Triterpenoid derivatives” (Univerzita Palackeho V Olomouci, priority 2000, dated 2006).
Like-named read-outs stand apart in the source and are kept apart here.

Assays:
B16 mouse melanoma = experiment: MTT cytotoxicity assay, B16; assay type: cell-based; conditions: 72 hours, read-out: TCS50
Description: (§1) One of the parameters used as the basis for colorimetric assays is the metabolic activity of viable cells. For example, a microtiter assay which uses the tetrazolium salt MTT is now widely used to quantitate cell proliferation and cytotoxicity [Hajdúch M, Mihál V, Minarík J, Fáber E, Safárová M, Weigl E, Antálek P.: Cytotechnology, 1996, 19, 243–245]. For instance, this assay is used in drug screening programs and in chemosensitivity testing. Because tetrazolium salts are cleaved only by metabolically active cells, these assays exclusively detect viable cells. In the case of the MTT assay, yellow soluble tetrazolium salt is reduced to a coloured water-insoluble formazan salt. After it is solubilized, the formazan formed can easily and rapidly be quantified in a conventional ELISA plate reader at 570 nm (maximum absorbancy). The quantity of reduced formazan corresponds to the number of vital cells in the culture. […]
(§2) The cell suspensions that were prepared and diluted according to the particular cell type and the expected target cell density (2,500–30,000 cells per well based on cell growth characteristics) were added by pipette (80 μl) into 96/well microtiter plates. […] Usually, test compounds were evaluated at six 4-fold dilutions. […] The tumour cell survival (TCS) was calculated using the following equitation: TCS=(ODdrug exposed well/mean ODcontrol wells)×100%. […]

[1] = system: CEM-DNR 1/C2 human T-lymphoblastic leukemia, daunorubicin resistant; experiment: MTT cytotoxicity assay, CEM-DNR 1/C2; assay type: cell-based; conditions: 72 hours, read-out: TCS50
Description: as §1, §2

HT-29 human colon cancer = experiment: MTT cytotoxicity assay, HT-29; assay type: cell-based; conditions: 72 hours, read-out: TCS50
Description: as §1, §2

[2] = system: MDA-MB-238 human breast cancer, estrogen independent, p53mut/mut; experiment: MTT cytotoxicity assay, MDA-MB-238; assay type: cell-based; conditions: 72 hours, read-out: TCS50
Description: as §1, §2

[3] = system: K562-GEM human promyelocytic leukemia, gemcitabin resistant; experiment: MTT cytotoxicity assay, K562-GEM; assay type: cell-based; conditions: 72 hours, read-out: TCS50
Description: as §1, §2

[4] = system: K562-ARA-C human promyelocytic leukemia, cytarabin resistant; experiment: MTT cytotoxicity assay, K562-ARA-C; assay type: cell-based; conditions: 72 hours, read-out: TCS50
Description: as §1, §2

CEM cells = experiment: Flow cytometry of total DNA content (cell cycle, apoptosis) in CEM cells; assay type: cell-based, human
Method: Hypophosphorylation of Rb protein is accompanied with cell cycle block on the G1/S transition. To investigate whether incubation of tumour cells with betulinines will result in cell cycle block and/or apoptosis, a flow-cytometry study was performed with measurement of total DNA content in CEM cells treated with/without I.3. Taxol (paclitaxel) was used as a positive control, since this drug is known to result in the cumulation of cells in the G2 phase.
Briefly, CEM cells were cultured in Dulbeco's modified essential medium with 4.5 g dextrose/l, 10% of foetal calf serum, 2 mM glutamine, 100 U/ml penicillin and 100 μg/ml streptomycin with/without the indicated concentrations of paclitaxel or I.3 (FIG. 4A). At selected time points, cells were harvested, washed in ice cold Hank's balanced salt solution (HBSS) and fixed in 70% ethanol at −20° C. overnight. The next day, ethanol was removed by centrifugation, cells were washed twice in HBSS and a cellular pellet (10^6 cells) was reconstituted in staining solution (propidium iodide 60 μg/ml, DNA-se free RNA-se 175 U/ml in HBSS) for 15 minutes at 37° C. The DNA content of individual cells was analyzed on flow cytometer Excalibur (Becton and Dickinson) at excitation wavelength of 488 nm.

[5] = system: HepG2 human hepatocellular carcinoma; experiment: MTT cytotoxicity assay, HepG2; assay type: cell-based; conditions: 72 hours, read-out: TCS50
Description: as §1, §2

[6] = system: CEM human T-lymphoblastic leukemia; experiment: MTT cytotoxicity screening assay, CEM; assay type: cell-based
Description: One of the parameters used as the basis for colorimetric assays is the metabolic activity of viable cells. For example, a microtiter assay which uses the tetrazolium salt MTT is now widely used to quantitate cell proliferation and cytotoxicity [Hajdúch M, Mihál V, Minarík J, Fáber E, Safárová M, Weigl E, Antálek P.: Cytotechnology, 1996, 19, 243–245]. For instance, this assay is used in drug screening programs and in chemosensitivity testing. Because tetrazolium salts are cleaved only by metabolically active cells, these assays exclusively detect viable cells. In the case of the MTT assay, yellow soluble tetrazolium salt is reduced to a coloured water-insoluble formazan salt. After it is solubilized, the formazan formed can easily and rapidly be quantified in a conventional ELISA plate reader at 570 nm (maximum absorbancy). The quantity of reduced formazan corresponds to the number of vital cells in the culture.
Human T-lymphoblastic leukaemia cell line CEM was used for routine screening of these compounds. […] The cells were maintained in Nunc/Corning 80 cm^2 plastic tissue culture flasks and cultured in cell culture medium (DMEM with 5 g/l glucose, 2 mM glutamine, 100 U/ml penicillin, 100 μg/ml streptomycin, 10% foetal calf serum and sodium bicarbonate). Individual compounds were dissolved in 10% diiethylsulfoxide/saline, pH 8.0.
The cell suspensions that were prepared and diluted according to the particular cell type and the expected target cell density (2,500–30,000 cells per well based on cell growth characteristics) were added by pipette (80 μl) into 96/well microtiter plates. Inoculates were allowed a pre-incubation period of 24 hours at 37° C. and 5% CO2 for stabilisation. Four-fold dilutions of the intended test concentration were added at time zero in 20 μl aliquots to the microtiter plate wells. Usually, test compounds were evaluated at six 4-fold dilutions. In routine testing, the highest well concentration was 250 μM, but it may differ, depending on the agent. All drug concentrations were examined in duplicate. Incubations of cells with the test compounds lasted for 72 hours at 37° C., in 5% CO2 atmosphere and 100% humidity. At the end of the incubation period, the cells were assayed by using the MTT assay. […] After this incubation period, formazan was solubilized by the addition of 100 μl/well of 10% SDS in water (pH=5.5) followed by further incubation at 37° C. overnight The optical density (OD) was measured at 540 nm with the Labsystem iEMS Reader MF(UK). The tumour cell survival (TCS) was calculated using the following equitation: TCS=(ODdrug exposed well/mean ODcontrol wells)×100%. The TCS50 value, the drug concentration lethal to 50% of the tumour cells, was calculated from the obtained dose response curves. […]

[7] = system: CEM-VCR bulk human T-lymphoblastic leukemia, vincristin resistant; experiment: MTT cytotoxicity assay, CEM-VCR bulk; assay type: cell-based; conditions: 72 hours, read-out: TCS50
Description: as §1, §2

[8] = system: K562-CdA human promyelocytic leukemia, cladrubin resistant; experiment: MTT cytotoxicity assay, K562-CdA; assay type: cell-based; conditions: 72 hours, read-out: TCS50
Description: as §1, §2

[9] = system: SW620 human colon cancer, metastasis; experiment: MTT cytotoxicity assay, SW620; assay type: cell-based; conditions: 72 hours, read-out: TCS50
Description: as §1, §2

[10] = system: U2OS human osteosarcoma, p53+/−, Rb+/−; experiment: MTT cytotoxicity assay, U2OS; assay type: cell-based; conditions: 72 hours, read-out: TCS50
Description: as §1, §2

MEL-3 human melanoma = experiment: MTT cytotoxicity assay, MEL-3; assay type: cell-based; conditions: 72 hours, read-out: TCS50
Description: as §1, §2

[11] = system: BT549 human breast cancer, p53mut/mut; experiment: MTT cytotoxicity assay, BT549; assay type: cell-based; conditions: 72 hours, read-out: TCS50
Description: as §1, §2

Q: What does the source list for CC(=O)OC[C@@]1(C(=O)O)CC[C@]2(C)[C@H](CC[C@@H]3[C@@]4(C)CC[C@H](OC(C)=O)C(C)(C)[C@@H]4CC[C@]32C)C1=O [I.3, 3β,28-diacetoxy-18-oxo-19,20,21,29,30-pentanorlupan-22-oic acid]?
A: IC50 (B16 mouse melanoma): 2100 nM; IC50 [1]: 600 nM; IC50 (HT-29 human colon cancer): 1600 nM; IC50 [2]: 1400 nM; IC50 [3]: 900 nM; IC50 [4]: 600 nM; cell cycle distribution (CEM cells; propidium iodide flow cytometry (FIG. 4A)): induces cumulation of cells in G0/G1 phases; induction of apoptosis (sub-G1 cells) (CEM cells; propidium iodide flow cytometry (FIG. 4B)): rapid apoptosis; IC50 [5]: 1700 nM; IC50 ([6]; CEM cells, as stated in the histone acetylation study, read-out: IC50): 2000 nM; IC50 ([6]; CEM, MTT assay, 72 hours, read-out: TCS50): 1000 nM; IC50 [7]: 2500 nM; IC50 [8]: 300 nM; IC50 [9]: 1200 nM; IC50 [10]: 1500 nM; IC50 (MEL-3 human melanoma): 1300 nM; IC50 [11]: 2000 nM
